In brackets after ≈: the same amount, converted by molar mass.

Type in all cases: cell-based
Test [1] concerns Streptococcus suis 702. The test is described as follows: Individual tests, microdilution MIC. The conditions noted are these: Streptococcus suis; S. suis 702; read-out: MIC values. On the procedure:
(§1) Strains were stored at −80° C. in appropriate media with glycerol, thawed and cultured according to conventional practices.
(§2) The ABs shown in Tables 2 and 3 below, all obtained from Aplha Aesar, were tested. The OAs used are shown in Tables 2 and 3 below, all obtained from Merck. The stock solutions were prepared appropriately and in appropriate way and media for the different strains and could contain 3.5% ethanol to increase solubility.
(§3) The tests were conducted using the microdilution method in a 96-well plate to be microtitered with the medium and culture conditions appropriate for the strains. Bacterial strains (10^5-10^6 CFU/ml) were incubated with the compounds to be tested, while control strains, when necessary, were grown in media containing 3.5% ethanol to exclude an inhibitory effect of any ethanol present in the stock solutions. After incubation, MIC was defined as the lowest concentration resulting in zero absorbance at 630 nm, recorded with Varioskan® LUX Multimode Microplat Reader (Thermo Fisher Scientific). For each test, the percentage of inhibition (%) was calculated with respect to the relative control.
(§4) ABs were tested in the range 64-0.13 ppm, OAs in the range […] and NICs in the range 7.5-0.06 nM.
For orientation: Broth dilution looks for growth in wells or tubes with falling amounts of substance.

For test [2], the system named is Escherichia Coli K88 95. Briefly: Individual tests, microdilution MIC. The conditions noted are these: Escherichia coli, COLIK8895; E. coli 95; read-out: MIC values. On the procedure:
as §1, §2, §3, §4

For test [3], the system named is Escherichia coli K88 97. Briefly: Individual tests, microdilution MIC. The conditions noted are these: Escherichia coli, K8897; E. coli 97; read-out: MIC values. On the procedure: as §1, §2, §3, §4
Test [4] relates to Streptococcus suis 701. The test is described as follows: Individual tests, microdilution MIC. The conditions noted are these: Streptococcus suis; S. suis 701; read-out: MIC values. On the procedure:
as §1, §2, §3, §4

The test system of test [5] is Streptococcus suis 702. Briefly: Combination test, checkerboard, % inhibition. The conditions noted are these: S. suis 702. On the procedure: as §1, §3
(§5) After phase 1, the strains were tested with associations at sub-effective doses of AB and OA or NIC in a 2×2 checkerboard model. Specifically, two sub-effective doses of AB were associated with two sub-effective doses of OA or NIC (half and one-quarter of MICs) as shown in FIG. 1.
(§6) The % indicate the percentage of inhibition (compounds alone and combinations).
(§7) Tables 4 to 7 show the % of inhibition of the components of the associations alone, at the effective concentrations shown in Tables 2 and 3, and at the sub-effective concentrations (half and one-quarter of MICs), and the % of inhibition of the associations.

Test [6] relates to Escherichia Coli K88 95. Briefly: Combination test, checkerboard, % inhibition. The conditions noted are these: E. coli 95. On the procedure: as §1, §3, §5, §6, §7
Test [7] concerns Escherichia coli K88 97. The test is described as follows: Combination test, checkerboard, % inhibition. The conditions noted are these: E. coli 97. On the procedure:
as §1, §3, §5, §6, §7

Test [8] relates to Streptococcus suis 701. The test is described as follows: Combination test, checkerboard, % inhibition. The conditions noted are these: S. suis 701. On the procedure:
as §1, §3, §5, §6, §7

Turning to `Cc1ccc(C(C)C)c(O)c1` [Thymol, 2-isopropyl-5-methylphenol], the MIC with Streptococcus suis 702 [1], with Escherichia Coli K88 95 [2], with Escherichia coli K88 97 [3] and in the test on Streptococcus suis 701 [4] was 1870 µM (≈ 281 µg/mL) in each case. Further, the % inhibition (usually the drop in the measured response relative to a control, in per cent) is reported as 10% in the test with Streptococcus suis 702 [5] (THY 0.47 mM alone); 36% in the test with Streptococcus suis 702 [5] (THY 0.94 mM alone); 7% in the test with Escherichia Coli K88 95 [6] (THY 0.47 mM alone); 18% with Escherichia Coli K88 95 [6] (THY 0.94 mM alone); 8% in the test on Escherichia coli K88 97 [7] (THY 0.47 mM alone); 12% in the test on Escherichia coli K88 97 [7] (THY 0.94 mM alone). Moreover, the “% inhibition” value in the test with Streptococcus suis 701 [8] (THY 0.47 mM alone) was determined as 0%; in the test on Streptococcus suis 701 [8] (THY 0.94 mM alone), 39%.

These data come from patent US20250170105A1, “ASSOCIATION WITH ANTIBIOTIC ACTIVITY, PHARMACEUTICAL COMPOSITIONS CONTAINING IT AND THEIR USE IN THE TREATMENT OF INFECTIONS” (VETAGRO INTERNATIONAL S.R.L., priority 2022, published 2025).
